Experimental data published in PubChem BioAssay AID1963967 (Molecular Pharmacology Branch, DTP, NCI, 2024).
pIC50: −log10 of the molar value.

Test system: 855422-203-R-J1-PDC spheroids with HUVEC/MSC, viability
Test: Anticancer human tumor 855422-203-R-J1-PDC patient-derived bladder carcinoma cell line growth inhibition [PI3K]
Details: for pIC50: curve of first compound; for viability, T/C: stronger effect = lower value
Source text: Combinatorial screen of targeted agents with the PI3K inhibitors inavolisib, alpelisib, duvelisib, and copanlisib in multi-cell type tumor spheroids
A high-throughput screen of multi-cell type tumor spheroids was designed to identify active combinations of targeted small molecules and PI3K pathway inhibitors. Complex spheroids include a stromal component modeled by human endothelial cells (HUVEC) and fibroblasts modeled by human mesenchymal stem cells (MSCs). The concentration ranges selected for each drug and investigational agent were based upon clinically achievable concentrations if the clinical Cmax of the agent was known.
Compounds. The drugs and investigational agents: inavolisib (NSC800729), alpelisib (NSC765974), duvelisib (NSC772469), copanlisib (NSC816437), ipatasertib (NSC767898), afuresertib (NSC778305), talazoparib (NSC767125), sapanisertib (NSC764658), selumetinib (NSC741078), tovorafenib (DAY101, NSC766906), vemurafenib (NSC761431), ravoxertinib (NSC781343), sotorasib (NSC818433), MRTX1133 (NSC 836407), abemaciclib (NSC 768073), palbociclib (NSC758247), venetoclax (NSC 766270), SY5609 (NSC837396), enzalutamide (NSC755605), and darolutamide (NSC825331), were obtained from the National Cancer Institute (NCI) Developmental Therapeutics Program Chemical Repository. The FDA-approved anticancer drug set is available from the NCI Developmental Therapeutics Program. […] The stock solutions were prepared in dimethyl sulfoxide (DMSO, Sigma-Aldrich, St. Louis, MO, cat. D2650) at 800-fold the tested concentration and stored at -70 degrees C prior to their use. All drugs and investigational agents were tested over a range starting from a high concentration at or near the clinical Cmax and decreasing in half-log increments. If the clinical Cmax for an agent had not been determined, the highest concentration tested was 10 microM.
Cell Culture. All cells were maintained in an incubator at 37 degrees C and 5% CO2 with 95% humidity. The PDC lines were cultured according to standard operating procedures established by the NCI PDMR (https://pdmr.cancer.gov/sops/default.htm). All PDCs were thawed and cultured in Matrigel-coated flasks prepared with a working solution of 1X Ham's F-12 nutrient mix, without supplementation (Invitrogen, Waltham, MA, cat. 11765054), 100 U/mL penicillin-streptomycin (Invitrogen, cat. 15140122), and 2.5% Matrigel (Corning Inc., Corning, NY, cat. 354248) for the first three passages. The 354836-022-R-J1-PDC, 475296-252-R-J1-PDC, and 997726-040-R-J2-PDC lines were cultured in 6A media, which includes advanced DMEM/F-12 (Thermo Fisher Scientific, cat. 12634028), 10 mM HEPES (Thermo Fisher Scientific, cat. 15630080), 1X GlutaMAX supplement (Thermo Fisher Scientific, cat. 35050061), 0.1 mg/mL primocin (InvivoGen, San Diego, CA, cat. ant-pm-2), 10% defined fetal bovine serum, heat inactivated (HyClone Laboratories Inc., Logan, UT, cat. SH30070.03HI), 50% L-WRN conditioned media (ATCC, cat. CRL-3276), 1.25 mM N-Acetyl-L-cysteine (Sigma-Aldrich, cat. A9165), 10 mM nicotinamide (Sigma-Aldrich, cat. N0636), 1X B-27 supplement (Thermo Fisher Scientific, cat. 17504044), 1X N-2 supplement (Thermo Fisher Scientific, cat. 17502048), and 10 microM Y-27632 dihydrochloride (Tocris Bioscience, Bristol, United Kingdom, cat. 1254). The 624824-186-R-J2-PDC line was cultured in 6C/Colon 1B media, which includes all 6A media components plus 50 ng/mL human EGF recombinant protein (Thermo Fisher Scientific, cat. PHG0311). […]

[1] = second compound 0.00316 µM, first compound 0.0316 µM
[2] = second compound 0.00316 µM, first compound 0.1 µM
[3] = second compound 0.01 µM, first compound 0.0316 µM
[4] = second compound 0.01 µM, first compound 0.1 µM
[5] = second compound 0.0316 µM, first compound 0.0316 µM
[6] = second compound 0.0316 µM, first compound 0.1 µM
[7] = second compound 0.1 µM, first compound 0.0316 µM
[8] = second compound 0.1 µM, first compound 0.1 µM
[9] = second compound 0.316 µM, first compound 0.0316 µM
[10] = second compound 0.316 µM, first compound 0.1 µM
[11] = second compound 1 µM, first compound 0.0316 µM
[12] = second compound 1 µM, first compound 0.1 µM
[13] = second compound 0.00316 µM, first compound 0.316 µM
[14] = second compound 0.00316 µM, first compound 1 µM
[15] = second compound 0.00316 µM, first compound 3.16 µM
[16] = second compound 0.00316 µM, first compound 10 µM
[17] = second compound 0.01 µM, first compound 0.316 µM
[18] = second compound 0.01 µM, first compound 1 µM
[19] = second compound 0.01 µM, first compound 3.16 µM
[20] = second compound 0.01 µM, first compound 10 µM
[21] = second compound 0.0316 µM, first compound 0.316 µM
[22] = second compound 0.0316 µM, first compound 1 µM
[23] = second compound 0.0316 µM, first compound 3.16 µM
[24] = second compound 0.0316 µM, first compound 10 µM
[25] = second compound 0.1 µM, first compound 0.316 µM
[26] = second compound 0.1 µM, first compound 1 µM
[27] = second compound 0.1 µM, first compound 3.16 µM
[28] = second compound 0.1 µM, first compound 10 µM
[29] = second compound 0.316 µM, first compound 0.316 µM
[30] = second compound 0.316 µM, first compound 1 µM
[31] = second compound 0.316 µM, first compound 3.16 µM
[32] = second compound 0.316 µM, first compound 10 µM
[33] = second compound 1 µM, first compound 0.316 µM
[34] = second compound 1 µM, first compound 1 µM
[35] = second compound 1 µM, first compound 3.16 µM
[36] = second compound 1 µM, first compound 10 µM
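Further: agents incubated with spheroids for one week before read-out.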
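Wherever viability, T/C is given: 100% = DMSO vehicle-treated control wells.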

CC(C)n1nc(-c2ccc3oc(N)nc3c2)c2c(N)ncnc21 + CC(Nc1ccc2c(c1)OCCn1cc(N3C(=O)OCC3C(F)F)nc1-2)C(N)=O
pIC50 (second compound 0.00316 µM): 7.29
pIC50 (second compound 0.01 µM): 7.36
pIC50 (second compound 0.0316 µM): 7.42
pIC50 (second compound 0.1 µM): 7.57
pIC50 (second compound 0.316 µM): 8.22
pIC50 (second compound 1 µM): > 9.50
viability, T/C (second compound 0.00316 µM, first compound 0.000316 µM): 113%
viability, T/C (second compound 0.00316 µM, first compound 0.001 µM): 90.1%
viability, T/C (second compound 0.00316 µM, first compound 0.00316 µM): 108%
viability, T/C (second compound 0.00316 µM, first compound 0.01 µM): 92.3%
viability, T/C [1]: 74.2%
viability, T/C [2]: 18.3%
viability, T/C (second compound 0.01 µM, first compound 0.000316 µM): 87.7%
viability, T/C (second compound 0.01 µM, first compound 0.001 µM): 92.9%
viability, T/C (second compound 0.01 µM, first compound 0.00316 µM): 98.7%
viability, T/C (second compound 0.01 µM, first compound 0.01 µM): 81.4%
viability, T/C [3]: 63.1%
viability, T/C [4]: 19%
viability, T/C (second compound 0.0316 µM, first compound 0.000316 µM): 91%
viability, T/C (second compound 0.0316 µM, first compound 0.001 µM): 84.4%
viability, T/C (second compound 0.0316 µM, first compound 0.00316 µM): 82%
viability, T/C (second compound 0.0316 µM, first compound 0.01 µM): 72%
viability, T/C [5]: 59.6%
viability, T/C [6]: 14.4%
viability, T/C (second compound 0.1 µM, first compound 0.000316 µM): 71.8%
viability, T/C (second compound 0.1 µM, first compound 0.001 µM): 72.7%
viability, T/C (second compound 0.1 µM, first compound 0.00316 µM): 78.7%
viability, T/C (second compound 0.1 µM, first compound 0.01 µM): 69.9%
viability, T/C [7]: 46.6%
viability, T/C [8]: 11.4%
viability, T/C (second compound 0.316 µM, first compound 0.000316 µM): 59.3%
viability, T/C (second compound 0.316 µM, first compound 0.001 µM): 55.9%
viability, T/C (second compound 0.316 µM, first compound 0.00316 µM): 58.7%
viability, T/C (second compound 0.316 µM, first compound 0.01 µM): 43.3%
viability, T/C [9]: 32.7%
viability, T/C [10]: 7.57%
viability, T/C (second compound 1 µM, first compound 0.000316 µM): 39.8%
viability, T/C (second compound 1 µM, first compound 0.001 µM): 38.4%
viability, T/C (second compound 1 µM, first compound 0.00316 µM): 36%
viability, T/C (second compound 1 µM, first compound 0.01 µM): 34%
viability, T/C [11]: 24.1%
viability, T/C [12]: 6.71%

CC1(C)CCC(CN2CCN(c3ccc(C(=O)NS(=O)(=O)c4ccc(NCC5CCOCC5)c([N+](=O)[O-])c4)c(Oc4cnc5[nH]ccc5c4)c3)CC2)=C(c2ccc(Cl)cc2)C1 + CC(Nc1ccc2c(c1)OCCn1cc(N3C(=O)OCC3C(F)F)nc1-2)C(N)=O
pIC50 (second compound 0.00316 µM): 5.34
pIC50 (second compound 0.01 µM): 5.35
pIC50 (second compound 0.0316 µM): 5.32
pIC50 (second compound 0.1 µM): 5.33
pIC50 (second compound 0.316 µM): 5.71
pIC50 (second compound 1 µM): > 7.50
viability, T/C [1]: 96.5%
viability, T/C [2]: 88.1%
viability, T/C [13]: 116%
viability, T/C [14]: 89.8%
viability, T/C [15]: 74%
viability, T/C [16]: 1.86%
viability, T/C [3]: 85.4%
viability, T/C [4]: 77.2%
viability, T/C [17]: 95.1%
viability, T/C [18]: 96.9%
viability, T/C [19]: 71%
viability, T/C [20]: 1.5%
viability, T/C [5]: 86.2%
viability, T/C [6]: 82%
viability, T/C [21]: 98.2%
viability, T/C [22]: 86%
viability, T/C [23]: 75.8%
viability, T/C [24]: 2.64%
viability, T/C [7]: 68.3%
viability, T/C [8]: 70.7%
viability, T/C [25]: 84.6%
viability, T/C [26]: 72.1%
viability, T/C [27]: 74.5%
viability, T/C [28]: 2.65%
viability, T/C [9]: 55.8%
viability, T/C [10]: 55.2%
viability, T/C [29]: 53.7%
viability, T/C [30]: 54.4%
viability, T/C [31]: 46.8%
viability, T/C [32]: 1.04%
viability, T/C [11]: 36.3%
viability, T/C [12]: 35.2%
viability, T/C [33]: 36.8%
viability, T/C [34]: 34.2%
viability, T/C [35]: 35%
viability, T/C [36]: 1.55%

C[C@@H](NC(=O)c1ncnc(N)c1Cl)c1ncc(C(=O)Nc2cc(C(F)(F)F)c(Cl)cn2)s1 + CC(Nc1ccc2c(c1)OCCn1cc(N3C(=O)OCC3C(F)F)nc1-2)C(N)=O
pIC50 (second compound 0.00316 µM): < 5.00
pIC50 (second compound 0.01 µM): < 5.00
pIC50 (second compound 0.0316 µM): < 5.00
pIC50 (second compound 0.1 µM): < 5.00
pIC50 (second compound 0.316 µM): > 7.50
pIC50 (second compound 1 µM): > 7.50
viability, T/C [1]: 106%
viability, T/C [2]: 83%
viability, T/C [13]: 122%
viability, T/C [14]: 83.3%
viability, T/C [15]: 116%
viability, T/C [16]: 109%
viability, T/C [3]: 99.8%
viability, T/C [4]: 86.2%
viability, T/C [17]: 85.4%
viability, T/C [18]: 84.9%
viability, T/C [19]: 118%
viability, T/C [20]: 98.4%
viability, T/C [5]: 79.8%
viability, T/C [6]: 85.4%
viability, T/C [21]: 102%
viability, T/C [22]: 83%
viability, T/C [23]: 95.5%
viability, T/C [24]: 69.3%
viability, T/C [7]: 58.7%
viability, T/C [8]: 61.5%
viability, T/C [25]: 80%
viability, T/C [26]: 68%
viability, T/C [27]: 81.8%
viability, T/C [28]: 35%
viability, T/C [9]: 47.3%
viability, T/C [10]: 49.1%
viability, T/C [29]: 49.7%
viability, T/C [30]: 54%
viability, T/C [31]: 43.4%
viability, T/C [32]: 23.9%
viability, T/C [11]: 34.8%
viability, T/C [12]: 40.4%
viability, T/C [33]: 32.6%
viability, T/C [34]: 33.6%
viability, T/C [35]: 30.9%
viability, T/C [36]: 14.1%
